From patent US7166569B2, “Method for the prevention of transplant rejection” (priority 1994, dated 2007)

Legend:
[1] = Experiment 1: administration of arginine (an HGH releaser) and DHEA to a human patient, fasting blood analysis; type: in vivo
Text: A human patient was placed on a standardized regimen of nutrient intake for two weeks to establish a baseline prior to ingesting any HGH releasing agents. The evening prior to blood analysis, the same evening meal was consumed (salmon, potato, white wine, vegetables, and Caesar salad). Upon establishing basal values for glucose, insulin, somatomedin C (a marker for growth hormone), DHEA-sulfate, serum lipids, and testosterone, a daily regimen of ingesting 15 grams of arginine just before bedtime was instituted. This regimen was maintained for one week, after which a new baseline was obtained. The evening following this new baseline measurement, DHEA was ingested at a dose of 180 mg (two 90 mg capsules taken simultaneously) at the same time as the arginine. This was continued for one week and the baseline levels of metabolites were rechecked. Finally, for the last week, the arginine dose was administered every other day or at 7.5 g/day while DHEA levels were maintained. Thus, the data points are as follows: • 1: Baseline—begin 15 gm/day administration of arginine; • 2: Day 7—begin 180 mg/day DHEA; • 3: Day 14—begin 15 gm arginine every other day or 7.5 g/day; and • 4: Day 21—end of experiment, no arginine administered the previous night.

[2] = Independent experiment: IGF-1 level after arginine ingestion; type: in vivo; conditions: two hours after arginine ingestion; basal 223 ng/ml
Text: This drop was sustained as long as arginine administration was continued. […] Others have also measured somatomedin C levels following arginine ingestion or infusion, and found them to be depressed despite good release of HGH. There is no explanation for this paradox, but it is not material to the fact that HGH is released by arginine and that released HGH does elevate insulin and that DHEA does block this insulin-elevating effect.

[3] = humans, arginine ingestion or infusion; cited from earlier work
[4] = cited from earlier work
[5] = Experiment 2: administration of HGH and DHEA, blood metabolite levels; type: in vivo, human
Description: As in the first experiment, a standard dietary regimen was followed the evening before each blood sample was collected. HGH administration was initiated one day after a baseline blood sample was drawn. HGH was injected subcutaneously at a dose of approximately 0.018 mg/kg/day, every other night, and was injected near midnight prior to blood collection the following morning. Blood was collected between 10:30 and 11:00 a.m. The second blood sample was taken on day 8, or just over 7 days after beginning HGH injections (4 injections in total to that time). After this second blood sample, a “wash out” period of two days was allowed prior to reinitiating injections according to the same schedule. On day 9, during the HGH “wash out” period, a priming dose of 200 mg of DHEA was taken in divided doses to prepare the patient for the HGH. The second round of injections was done simultaneously with the ingestion of two 100 mg capsules of DHEA, beginning on the evening of day 10. This regimen continued for a total of 4 HGH injections, culminating in the final injection on day 16 and blood sampling on day 17. Two hundred mg of DHEA were taken also on the nights between HGH injections, at the normal time. HGH injections were administered near midnight of the day stated.

In the case of C[C@]12CC[C@H](O)CC1=CC[C@@H]1[C@@H]2CC[C@]2(C)C(=O)CC[C@@H]12 [DHEA, dehydroepiandrosterone], the “insulin level at point 4” value ([1]; day 21, DHEA maintained, arginine every other day, none the night before) is reported as “returned to basal levels” and the “fasting serum insulin, % of basal levels” value ([1]; point 3, day 14, 180 mg/day DHEA with continuing undiminished 15 g/day arginine) is reported as 76%.
For N=C(N)NCCC[C@H](N)C(=O)O [arginine], the “insulin determination after only 3 days of arginine ingestion” value ([1]; 3 days of arginine, data not shown in FIG. 1) was “normal insulin level”, the “somatomedin C (IGF-1) levels in response to oral arginine” value ([1]; FIG. 5, sustained as long as arginine was continued) was “DROP” and the “circulating level of DHEA-sulfate, point 4 versus point 3” value ([1]; fall in arginine ingestion, no drop in DHEA ingestion) was “fell”. The glucose concentration ([1]; fasting serum, during introduction and tapering off of arginine) was “no change”, the “fasting serum insulin rise in response to arginine ingestion” value ([1]; point 2, day 7, 15 g/day arginine at bedtime, no DHEA) was about 50% and the “DHEA-sulfate, endogenous change” value ([1]; point 2 versus point 1, arginine only, no DHEA ingested) was “noticeable increase”. The “IGF-1 level after arginine ingestion” value [2] was 166 ng/mL, the “time for insulin to fall back to baseline after arginine” value [3] was 1 to 2 h and the “time to peak of insulin levels after arginine” value [3] was at most 30 min.
In the case of Chromium picolinate, the “extension of the life span of animals” value [4] is given as 50%.
In the case of “HGH: recombinant or natural human growth hormone”, the “insulin rise prior to DHEA ingestion” value ([5]; HGH approx. 0.018 mg/kg/day s.c. every other night, day 8) is reported as 57%, the DHEA-sulfate change ([5]; HGH only) is reported as “unaltered” and the “circulating DHEA levels, depression” value ([5]; HGH only) is reported as “a third”. The Insulin level ([5]; serum, by stage of experiment, baseline 6.6) was 10.4 uU/ml, the IGF-1 level ([5]; serum, by stage of experiment, baseline 27.0) was 35.5 µg/dL and the DHEA-sulfate level ([5]; serum, by stage of experiment, baseline 146) was 146 µg/dL. It also gave a DHEA level ([5]; serum, by stage of experiment, baseline 360) of 240 ng/dL.
